Measured values taken from ChEMBL document CHEMBL1201862, “PubChem BioAssay data set” (2004).
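Grown in 96-well plates, cells were treated for 48 hours with each compound at five concentrations. Insufficient inhibition: endpoint recorded as highest concentration tested. GI50 = concentration required for 50% inhibition of growth.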 Calls of active or inactive are those of the source. No stated cut-off is given here; in the data, active = GI50 up to about 1.1 µM and inactive = higher.

Key:
Test in all cases: growth of human tumour cells (NCI), 48 h
[1] = system: IGROV-1
[2] = system: OVCAR-8
[3] = system: HL-60
[4] = system: TK-10
[5] = system: OVCAR-5
[6] = system: NCI-H23
[7] = system: CCRF-CEM
[8] = system: EKVX
[9] = system: UO-31
[10] = system: ACHN
[11] = system: SK-OV-3
[12] = system: COLO 205
[13] = system: MDA-MB-435
[14] = system: T47D
[15] = system: OVCAR-3
[16] = system: MDA-N
[17] = system: NCI/ADR-RES
[18] = system: Hs-578T
[19] = system: BT-549

SMILES	GI50 [1]	GI50 [2]	GI50 [3]	GI50 [4]	GI50 [5]	GI50 [6]	GI50 [7]	GI50 [8]	GI50 [9]	GI50 [10]	GI50 [11]	GI50 [12]	GI50 [13]	GI50 [14]	GI50 [15]	GI50 [16]	GI50 [17]	GI50 [18]	GI50 [19]
CC(=O)OCC1OC(n2c(=O)[nH]c(=O)c3nn[nH]c32)C(OC(C)=O)C(OC(C)=O)C1OC(C)=O (stereo unspecified)	> 100 µM (inactive)	> 100 µM (inactive)	> 100 µM (inactive)	> 100 µM (inactive)	> 100 µM (inactive)	> 100 µM (inactive)	> 100 µM (inactive)	> 100 µM (inactive)	> 100 µM (inactive)	> 100 µM (inactive)	> 100 µM (inactive)	> 100 µM (inactive)	–	–	–	–	–	–	–
CCCNC(=S)N/N=C/c1cccc(C)n1	42.7 µM (inactive)	28 µM (inactive)	25.9 µM (inactive)	65.8 µM (inactive)	44.5 µM (inactive)	28.9 µM (inactive)	2.69 µM (inactive)	30.9 µM (inactive)	17.2 µM (inactive)	13.4 µM (inactive)	46 µM (inactive)	3.94 µM (inactive)	36.8 µM (inactive)	3.43 µM (inactive)	2.91 µM (inactive)	30.6 µM (inactive)	31 µM (inactive)	> 100 µM (inactive)	–
Clc1cccc(/C=c2\nc(-c3ccccc3)n3c2nc2ccccc23)c1	> 100 µM (inactive)	> 100 µM (inactive)	> 100 µM (inactive)	87.1 µM (inactive)	> 100 µM (inactive)	72.8 µM (inactive)	> 100 µM (inactive)	28.5 µM (inactive)	> 100 µM (inactive)	–	57.5 µM (inactive)	> 100 µM (inactive)	> 100 µM (inactive)	–	> 100 µM (inactive)	> 100 µM (inactive)	> 100 µM (inactive)	98.6 µM (inactive)	88.3 µM (inactive)
COc1cc2ccnc3c2c(c1OC)CC1CC(O)C(OC)CC31 (stereo unspecified)	66.4 µM (inactive)	53.8 µM (inactive)	28.6 µM (inactive)	53.8 µM (inactive)	37.5 µM (inactive)	47.5 µM (inactive)	78.3 µM (inactive)	22.8 µM (inactive)	20.9 µM (inactive)	44.4 µM (inactive)	> 100 µM (inactive)	43.2 µM (inactive)	–	–	82.2 µM (inactive)	–	–	–	–
O=c1c2c(oc3ccccc13)-c1ccccc1OC2	36.7 µM (inactive)	27.9 µM (inactive)	–	> 100 µM (inactive)	> 100 µM (inactive)	59.7 µM (inactive)	> 100 µM (inactive)	53.2 µM (inactive)	28.6 µM (inactive)	35.7 µM (inactive)	20.2 µM (inactive)	> 10 µM (inactive)	> 100 µM (inactive)	16.3 µM (inactive)	> 100 µM (inactive)	> 100 µM (inactive)	29.3 µM (inactive)	–	> 100 µM (inactive)
c1ccc2c(c1)nnn2CNc1ccc(N2CCCCC2)cc1	> 100 µM (inactive)	> 100 µM (inactive)	45.3 µM (inactive)	> 100 µM (inactive)	–	> 100 µM (inactive)	77.1 µM (inactive)	> 100 µM (inactive)	> 100 µM (inactive)	> 100 µM (inactive)	> 100 µM (inactive)	> 100 µM (inactive)	–	–	> 100 µM (inactive)	–	–	–	–
COC(=O)c1cc2c3c(ccc2[nH]1)N(C(=O)c1cc2c4c(ccc2[nH]1)N(C(=O)c1cc2c5c(ccc2[nH]1)N(C(N)=O)CC5)CC4)CC3	3.37 µM (inactive)	–	6.62 µM (inactive)	13.1 µM (inactive)	> 52.7 µM (inactive)	2.94 µM (inactive)	4.58 µM (inactive)	2.17 µM (inactive)	3.94 µM (inactive)	3.13 µM (inactive)	2.1 µM (inactive)	2.72 µM (inactive)	–	–	3.9 µM (inactive)	–	–	–	–
C=CC1(c2ccc3ccccc3c2)OCC(CC)(CC)CO1	21.9 µM (inactive)	48.3 µM (inactive)	21.6 µM (inactive)	37.5 µM (inactive)	18.8 µM (inactive)	20.1 µM (inactive)	20.3 µM (inactive)	–	32.7 µM (inactive)	20.5 µM (inactive)	53.1 µM (inactive)	16.3 µM (inactive)	22.7 µM (inactive)	22.5 µM (inactive)	25.2 µM (inactive)	29.3 µM (inactive)	30.1 µM (inactive)	18.7 µM (inactive)	–
CNC(C)Cc1ccccc1O (stereo unspecified)	> 100 µM (inactive)	> 100 µM (inactive)	> 100 µM (inactive)	> 100 µM (inactive)	> 100 µM (inactive)	> 100 µM (inactive)	> 100 µM (inactive)	> 100 µM (inactive)	> 100 µM (inactive)	> 100 µM (inactive)	> 100 µM (inactive)	> 100 µM (inactive)	–	–	> 100 µM (inactive)	–	–	–	–
CC(=O)OCCn1cnc2nc(Nc3ccccc3)nc(Cl)c21	> 100 µM (inactive)	> 100 µM (inactive)	47.8 µM (inactive)	> 100 µM (inactive)	> 100 µM (inactive)	> 100 µM (inactive)	69.2 µM (inactive)	> 100 µM (inactive)	–	42 µM (inactive)	> 100 µM (inactive)	47.5 µM (inactive)	25.1 µM (inactive)	40.7 µM (inactive)	> 100 µM (inactive)	36.1 µM (inactive)	95.3 µM (inactive)	> 100 µM (inactive)	–
N#Cc1c(-c2ccc(Cl)cc2)c(C#N)c(=O)n(NS(=O)(=O)c2ccccc2)c1O	24.2 µM (inactive)	28.8 µM (inactive)	16.1 µM (inactive)	39.1 µM (inactive)	31 µM (inactive)	–	25.2 µM (inactive)	28.1 µM (inactive)	–	25.9 µM (inactive)	21.5 µM (inactive)	29.9 µM (inactive)	34.3 µM (inactive)	–	–	19.8 µM (inactive)	35.3 µM (inactive)	19.7 µM (inactive)	13.4 µM (inactive)
CC1=C(C)SC(=C2Sc3[n-]c(=O)[nH]c(=O)c3S2)S1.CCCC[N+](CCCC)(CCCC)CCCC	> 100 µM (inactive)	49.4 µM (inactive)	< 0.01 µM (active)	> 100 µM (inactive)	> 100 µM (inactive)	> 100 µM (inactive)	40.4 µM (inactive)	> 100 µM (inactive)	> 100 µM (inactive)	> 100 µM (inactive)	> 100 µM (inactive)	> 100 µM (inactive)	31.6 µM (inactive)	–	46.1 µM (inactive)	–	95.9 µM (inactive)	> 100 µM (inactive)	> 100 µM (inactive)
COc1cc(OC)c(OC)cc1/C=N/N=C(\N)NO	> 100 µM (inactive)	> 100 µM (inactive)	83.9 µM (inactive)	> 100 µM (inactive)	> 100 µM (inactive)	> 100 µM (inactive)	> 100 µM (inactive)	> 100 µM (inactive)	> 100 µM (inactive)	56.2 µM (inactive)	> 100 µM (inactive)	80 µM (inactive)	68.2 µM (inactive)	> 100 µM (inactive)	> 100 µM (inactive)	> 100 µM (inactive)	> 100 µM (inactive)	> 100 µM (inactive)	–
CC1C(c2cc(C(C)(C)C)c(O)c(C(C)(C)C)c2)c2cc3c(cc2OC1N1CCOCC1)OCO3 (stereo unspecified)	36.2 µM (inactive)	19.1 µM (inactive)	–	15.5 µM (inactive)	> 100 µM (inactive)	28.1 µM (inactive)	> 100 µM (inactive)	23.9 µM (inactive)	12.4 µM (inactive)	7.69 µM (inactive)	–	71 µM (inactive)	24 µM (inactive)	21.4 µM (inactive)	15.8 µM (inactive)	26.9 µM (inactive)	27.4 µM (inactive)	3.13 µM (inactive)	–
Cc1ccc(OCC2OC(n3cnc4c(Br)nc(Br)nc43)CC2Oc2ccc(C)cc2)cc1 (stereo unspecified)	5.04 µM (inactive)	3.69 µM (inactive)	1.91 µM (inactive)	21.8 µM (inactive)	12.3 µM (inactive)	4.55 µM (inactive)	2.7 µM (inactive)	2.05 µM (inactive)	14.3 µM (inactive)	2.32 µM (inactive)	14.5 µM (inactive)	4.06 µM (inactive)	5.85 µM (inactive)	10.8 µM (inactive)	5.6 µM (inactive)	2.94 µM (inactive)	9.59 µM (inactive)	–	18.6 µM (inactive)
NCCCC(N/C=C1/N=C(c2ccccc2)OC1=O)C(=O)O (stereo unspecified)	> 100 µM (inactive)	> 100 µM (inactive)	63.4 µM (inactive)	> 100 µM (inactive)	> 100 µM (inactive)	> 100 µM (inactive)	37.8 µM (inactive)	> 100 µM (inactive)	> 100 µM (inactive)	> 100 µM (inactive)	> 100 µM (inactive)	> 100 µM (inactive)	–	–	> 100 µM (inactive)	–	–	–	–
COC(=O)C1=Cc2cc(OC)c(OC)cc2[C@H](c2ccc(OC)c(OC)c2)C1C(=O)OC (stereo partly specified)	> 100 µM (inactive)	> 100 µM (inactive)	> 100 µM (inactive)	> 100 µM (inactive)	> 100 µM (inactive)	> 100 µM (inactive)	> 100 µM (inactive)	> 100 µM (inactive)	> 100 µM (inactive)	> 100 µM (inactive)	> 100 µM (inactive)	> 100 µM (inactive)	–	–	> 100 µM (inactive)	–	–	–	–
Cc1ccc2[nH]c3c4c5ccccc5nc-4c[nH]c3c2c1	15 µM (inactive)	18.6 µM (inactive)	16.6 µM (inactive)	21 µM (inactive)	17.1 µM (inactive)	10 µM (inactive)	15.3 µM (inactive)	15.2 µM (inactive)	16.7 µM (inactive)	16.7 µM (inactive)	12.6 µM (inactive)	17.5 µM (inactive)	–	–	10 µM (inactive)	–	–	–	–
